# Experimental data as given in paper PMC8977642, “Unsupervised Mining of HLA-I Peptidomes Reveals New Binding Motifs and Potential False Positives in the Community Database” (Frontiers in Immunology, 2022).
# Molecular target: HLA-B*14:02 (Homo sapiens, UniProt P01889, A93T/A95T/C349S/D138N/D201E/E187T/E204Q/H137Y/K202T/Q94N/R155S/R180L/S121W/S35A/Y140F/Y195H/Y91C)
# Assay: REVEAL MHC-peptide binding assay (ProImmune)
# Conditions: REVEAL MHC-peptide binding assay, versus positive control
# Excerpt: To test whether outlier peptides identified by unsupervised motif clustering are false positives or true ligands with very weak binding affinity, we performed an HLA binding assay on 59 newly identified antigens for HLA-B*14:02 ( Supplementary Table 3 , 13 outliers and 46 non-outlier peptides). […] For LPFCRPGPEGQL, this peptide was likely called an outlier because the middle arginine residue was not predicted to take part in the 9-mer binding motif by NetMHCpan (the predicted core motif was LPFGPEGQL).
# Figure 3 HLA binding assay for HLA-B*14:02. Peptide synthesis and binding assay were performed by ProImmune, Ltd. (see Methods). (A) Distributions of binding scores, measured as the percentages of the binding activity compared to a positive control, for clustered peptides (n = 46) and outlier peptides (n = 13). (B) Comparison of predicted percentage ranks of eluted ligand (% rank) and binding scores. The orange and red dashed lines indicate the 2% rank and 0.5% rank thresholds for weak and strong binders, respectively.
# The binding activities of selected 59 newly identified candidate antigens for HLA-B*14:02 ( Supplementary Table 3 ) were assessed using the REVEAL MHC-peptide binding assay provided by ProImmune, Ltd. (Oxford, UK). Peptides were synthesized and quality checked using MALDI-TOF mass spectrometry by ProImmune, Ltd. (Oxford, UK). Binding activities were reported as percentage relative to the affinity of a positive control (a known high-affinity T cell epitope for HLA-B*14:02). According to the experiment report provided by the company, the standard error of the reported affinities is 3 percentage points.
row,Sequence,HLA binding activity (in words)
1,"LPFCRPGPEGQL [candidate antigen for HLA-B*14:02, outlier]",high binding affinity
2,"LRNGGHFVI [candidate antigen for HLA-B*14:02, outlier]",high binding affinity

# Same assay, conditions: relative to a known high-affinity T cell epitope for HLA-B*14:02; synthesized peptides; standard error 3 percentage points
row,Sequence,Binding Test (binding activity as percentage of positive control)
1,"SSSKGSLGGGF [candidate antigen for HLA-B*14:02, non-outlier]",0.2%
2,"QAYMNQRKL [candidate antigen for HLA-B*14:02, non-outlier]",0.2%
3,"QQLCHQTL [candidate antigen for HLA-B*14:02, non-outlier]",56.8%
4,"LNQRAQAVL [candidate antigen for HLA-B*14:02, outlier]",3.1%
5,"DLPEHAVL [candidate antigen for HLA-B*14:02, non-outlier]",14.2%
6,"QGLSILLPKI [candidate antigen for HLA-B*14:02, outlier]",0%
7,"QPAEHLQL [candidate antigen for HLA-B*14:02, non-outlier]",49.4%
8,"QTWWHGVL [candidate antigen for HLA-B*14:02, non-outlier]",74.6%
9,"GLGILDPVLL [candidate antigen for HLA-B*14:02, non-outlier]",0.1%
10,"LLSPQQTI [candidate antigen for HLA-B*14:02, non-outlier]",0.8%
11,"ESGPSIVHRKCF [candidate antigen for HLA-B*14:02, outlier]",0.1%
12,"AVSMIPPLLL [candidate antigen for HLA-B*14:02, outlier]",0.2%
13,"YATLHHVI [candidate antigen for HLA-B*14:02, non-outlier]",42.2%
14,"LPFCRPGPEGQL [candidate antigen for HLA-B*14:02, outlier]",75.9%
15,"CDFVHQAL [candidate antigen for HLA-B*14:02, non-outlier]",41.7%
16,"AAPARVSVA [candidate antigen for HLA-B*14:02, outlier]",0.2%
17,"ETASDLLLHSAL [candidate antigen for HLA-B*14:02, non-outlier]",59.3%
18,"LNVLHLDT [candidate antigen for HLA-B*14:02, non-outlier]",5%
19,"CQVTHISL [candidate antigen for HLA-B*14:02, non-outlier]",56.7%
20,"VAPGKDLTK [candidate antigen for HLA-B*14:02, non-outlier]",0%

row,Sequence,Binding Test (binding activity as percentage of positive control)
1,"IRLENEIQ [candidate antigen for HLA-B*14:02, non-outlier]",0.1%
2,"LSYVSIMAAI [candidate antigen for HLA-B*14:02, non-outlier]",0.2%
3,"DNAVHCVI [candidate antigen for HLA-B*14:02, non-outlier]",26.2%
4,"LGFTHHCL [candidate antigen for HLA-B*14:02, non-outlier]",47.6%
5,"DQFLKICL [candidate antigen for HLA-B*14:02, non-outlier]",62.6%
6,"DQYKRETI [candidate antigen for HLA-B*14:02, non-outlier]",33.9%
7,"DRYLPGETF [candidate antigen for HLA-B*14:02, non-outlier]",61.4%
8,"SQYQRLLCI [candidate antigen for HLA-B*14:02, non-outlier]",80.3%
9,"LRNGGHFVI [candidate antigen for HLA-B*14:02, outlier]",61.2%
10,"QQFAHPPL [candidate antigen for HLA-B*14:02, non-outlier]",82.8%
11,"NQFQRQAAV [candidate antigen for HLA-B*14:02, non-outlier]",63.6%
12,"TYDDATKTFTVTE [candidate antigen for HLA-B*14:02, non-outlier]",0%
13,"HQITHQAM [candidate antigen for HLA-B*14:02, non-outlier]",52.4%
14,"SCRVHKII [candidate antigen for HLA-B*14:02, non-outlier]",8.3%
15,"LSSLSLPILI [candidate antigen for HLA-B*14:02, outlier]",0.1%
16,"SRLDSVLLL [candidate antigen for HLA-B*14:02, non-outlier]",43.9%
17,"QEVKQGKLL [candidate antigen for HLA-B*14:02, non-outlier]",0.1%
18,"QQGTHLSL [candidate antigen for HLA-B*14:02, non-outlier]",47.7%
19,"CHIYHHAL [candidate antigen for HLA-B*14:02, non-outlier]",55.5%
20,"TRIEKRIVI [candidate antigen for HLA-B*14:02, non-outlier]",54.9%

row,Sequence,Binding Test (binding activity as percentage of positive control)
1,"CRFEGQFSI [candidate antigen for HLA-B*14:02, non-outlier]",63.5%
2,"SPTCHACL [candidate antigen for HLA-B*14:02, non-outlier]",19.8%
3,"LPIIHCTL [candidate antigen for HLA-B*14:02, non-outlier]",56.4%
4,"DQVGGLGR [candidate antigen for HLA-B*14:02, non-outlier]",0.2%
5,"HPASHPEL [candidate antigen for HLA-B*14:02, non-outlier]",29.9%
6,"LTGDIHAITAA [candidate antigen for HLA-B*14:02, outlier]",0.2%
7,"PLGMNQLQAL [candidate antigen for HLA-B*14:02, non-outlier]",0.3%
8,"TYDDATKTF [candidate antigen for HLA-B*14:02, outlier]",0.1%
9,"YQILHECL [candidate antigen for HLA-B*14:02, non-outlier]",50.1%
10,"IHTLVESL [candidate antigen for HLA-B*14:02, non-outlier]",0.2%
11,"AQGGVLPNI [candidate antigen for HLA-B*14:02, outlier]",0.2%
12,"LPFCHSEL [candidate antigen for HLA-B*14:02, non-outlier]",60.2%
13,"QVWGTLTSL [candidate antigen for HLA-B*14:02, non-outlier]",0.1%
14,"CEVTHQGL [candidate antigen for HLA-B*14:02, non-outlier]",25.4%
15,"CVTIHEAL [candidate antigen for HLA-B*14:02, non-outlier]",32.1%
16,"FGYSRHTPF [candidate antigen for HLA-B*14:02, non-outlier]",24.8%
17,"REQFSSRGS [candidate antigen for HLA-B*14:02, outlier]",0%
18,"QQILRDAL [candidate antigen for HLA-B*14:02, non-outlier]",56.2%
